Where two headings read alike, the source gives them in different places.
How the values were obtained:
albumin = biological target: T1, albumin (Homo sapiens, UniProt P02768); details: once in the circulation; cited from earlier work
T1 construct: host or cells: endogenous albumin of the bloodstream

Type I diabetes subjects = experiment: Effect of heating or cooling the injection site on blood glucose after basal insulin (LANTUS) injection (FIG. 19); assay type: in vivo, human; details: for ΔBG_2H, blood glucose excursion change from control / ΔBG_3H, blood glucose excursion change from control / ΔBG_4H, blood glucose excursion change from control: fasting
Description: FIG. 19 is a graph showing results of a study of the effect of applying a treatment (cooling or heating) for regulating the absorption of a drug (insulin) on an analyte level (insulin and/or blood glucose level) over time measured in minutes.
The experiment tests the effect of treatment (e.g. cooling and heating) at the injection site on insulin and glucose blood levels during nine hours following long acting, basal insulin (LANTUS) injection. The tested treatments included heating the skin over the injection site to 40° C. and cooling the skin over the injection site to 20° C. Each subject underwent three procedures during three different days including control, heating and cooling in random order, thus each subject served as his/her own control.
Type I diabetes subjects under fasting conditions injected their usual basal insulin dose which is intended to keep their blood glucose level stable. Two hours after injection a stabilization period commenced in which a subject's blood glucose levels was adjusted to a target blood glucose level using IV insulin or IV glucose administration. The starting glucose level was 150 mg/dl±20 mg/dl. […] In the two testing days the heating or cooling elements were attached to the injection site and heating or cooling was started for a period of four hours and no intervention (besides the treatment, i.e. cooling or heating) was performed during this period. The procedure continued for another two hours without intervention. On the control day no intervention or treatment was applied. During the whole procedure blood samples were collected for blood glucose and insulin concentration measurements every 20 minutes. Safety limits of the study were 75 mg/dl as the low limit, and 250 mg/dl as the high limit. If the subject's blood glucose level was below 75 mg/dl, then a 10% glucose solution was given intravenously to increase the subject's blood glucose level. If the subject's blood glucose level was above 250 mg/dl then IV insulin was given to reduce blood glucose level.

diabetes subjects = experiment: Effect of cooling the injection site on blood glucose after basal insulin (LANTUS) injection (FIG. 20); assay type: in vivo, human
Experimental: FIG. 20 is a graph showing results of a study of the effect of applying cooling for regulating the absorption of a drug (insulin) on an analyte level (insulin and/or blood glucose level) over time measured in minutes.
The diabetes subjects under fasting conditions injected their usual basal insulin dose (LANTUS) which is intended to keep their blood glucose level stable. […] Cooling commenced at 2 hours and was applied for 3 hours successfully raising he blood glucose level back to 142 mg/dl.

[1] = cited from earlier work

T1 sequence (P02768 25-609): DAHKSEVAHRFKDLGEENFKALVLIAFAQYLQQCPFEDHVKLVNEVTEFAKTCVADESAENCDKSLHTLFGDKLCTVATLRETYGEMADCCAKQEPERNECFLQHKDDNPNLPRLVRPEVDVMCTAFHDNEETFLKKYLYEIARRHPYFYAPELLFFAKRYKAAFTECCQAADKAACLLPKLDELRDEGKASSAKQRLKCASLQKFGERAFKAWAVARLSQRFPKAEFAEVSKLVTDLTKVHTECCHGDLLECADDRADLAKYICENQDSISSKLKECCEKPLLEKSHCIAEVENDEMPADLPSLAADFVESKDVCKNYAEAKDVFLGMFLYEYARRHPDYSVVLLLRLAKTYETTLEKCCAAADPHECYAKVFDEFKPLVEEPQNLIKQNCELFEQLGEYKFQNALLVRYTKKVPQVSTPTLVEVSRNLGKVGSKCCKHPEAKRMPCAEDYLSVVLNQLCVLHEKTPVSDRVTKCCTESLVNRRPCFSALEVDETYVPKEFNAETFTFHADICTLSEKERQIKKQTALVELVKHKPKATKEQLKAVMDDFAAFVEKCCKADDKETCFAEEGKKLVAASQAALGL

Substance: insulin detemir
- albumin bound (albumin): 98%

Substance: insulin glargine [LANTUS]
- increase in blood glucose levels (Type I diabetes subjects; applying cooling to the injection site (text b295)): 25 mg/dL
- average decrease in blood glucose compared to no treatment at all (Type I diabetes subjects; applying heat to the injection site (text b295)): 40 mg/dL
- ΔBG_2H, blood glucose excursion change from control (Type I diabetes subjects; cooling skin over injection site to 20° C., after 2 hours): +30 mg/dl
- ΔBG_3H, blood glucose excursion change from control (Type I diabetes subjects; cooling skin over injection site to 20° C., after 3 hours): +42 mg/dl
- ΔBG_4H, blood glucose excursion change from control (Type I diabetes subjects; cooling skin over injection site to 20° C., after 4 hours): +50 mg/dl
- blood glucose levels over time (FIG. 19) (Type I diabetes subjects; cooling the injection site): increased
- increase in blood glucose compared to no intervention (Type I diabetes subjects; cooling the injection site, after 2 hours): about 42 mg/dl
- increase in blood glucose compared to no intervention (Type I diabetes subjects; cooling the injection site, after 3 hours): ~59 mg/dL
- increase in blood glucose compared to no intervention (Type I diabetes subjects; cooling the injection site, after 4 hours): ~65 mg/dL
- ΔBG_2H, blood glucose excursion change from control (Type I diabetes subjects; heating skin over injection site to 40° C., after 2 hours): -29 mg/dL
- ΔBG_3H, blood glucose excursion change from control (Type I diabetes subjects; heating skin over injection site to 40° C., after 3 hours): -32 mg/dL
- ΔBG_4H, blood glucose excursion change from control (Type I diabetes subjects; heating skin over injection site to 40° C., after 4 hours): -32 mg/dL
- blood glucose levels over time (FIG. 19) (Type I diabetes subjects; heating the injection site): decreased
- average decrease in blood glucose compared to no intervention (Type I diabetes subjects; heating the injection site, after 2 hours): 15 mg/dL
- average decrease in blood glucose compared to no intervention (Type I diabetes subjects; heating the injection site, after 3 hours): 21 mg/dL
- average decrease in blood glucose compared to no intervention (Type I diabetes subjects; heating the injection site, after 4 hours): 26 mg/dL
- blood glucose levels over time (FIG. 19) (Type I diabetes subjects; no intervention applied to the injection site): stable around the base line
- blood glucose level (diabetes subjects; after cooling applied for 3 hours, commenced at 2 hours): 142 mg/dL
- initial blood glucose level (diabetes subjects; at injection, fasting): 143 mg/dL
- blood glucose level (diabetes subjects; within 2 hours after injection, before cooling): 94 mg/dL
- solubility ([1]; neutral pH (pH 7.4)): forms precipitates
- solubility ([1]; pH 4): soluble

— patent US20200038600A1, “DEVICE AND METHOD FOR DRUG DELIVERY” (Insuline Medical Ltd., priority 2016, published 2020)
